Test results published in publication PMC8518382, “Identification of a Bromodomain‐like Region in 15‐Lipoxygenase‐1 Explains Its Nuclear Localization” (Angewandte Chemie (International Ed. in English), 2021).

How the values were obtained:
15-LOX-1 = molecular target: T1, 15-LOX-1 (Homo sapiens, UniProt P16050); experiment: Sandwich ELISA of Labelox B biotinylation in A549 cell lysate, 15-LOX-1 capture; type: biochemical; set-up: the endogenous LOXs were captured on an anti‐LOX antibody precoated 96‐well plate; endogenous in cells; host or cells: A549 cell lysate; details: HRP-streptavidin detection, read-out: EC50 of labeling
T1 sequence (P16050 1-662): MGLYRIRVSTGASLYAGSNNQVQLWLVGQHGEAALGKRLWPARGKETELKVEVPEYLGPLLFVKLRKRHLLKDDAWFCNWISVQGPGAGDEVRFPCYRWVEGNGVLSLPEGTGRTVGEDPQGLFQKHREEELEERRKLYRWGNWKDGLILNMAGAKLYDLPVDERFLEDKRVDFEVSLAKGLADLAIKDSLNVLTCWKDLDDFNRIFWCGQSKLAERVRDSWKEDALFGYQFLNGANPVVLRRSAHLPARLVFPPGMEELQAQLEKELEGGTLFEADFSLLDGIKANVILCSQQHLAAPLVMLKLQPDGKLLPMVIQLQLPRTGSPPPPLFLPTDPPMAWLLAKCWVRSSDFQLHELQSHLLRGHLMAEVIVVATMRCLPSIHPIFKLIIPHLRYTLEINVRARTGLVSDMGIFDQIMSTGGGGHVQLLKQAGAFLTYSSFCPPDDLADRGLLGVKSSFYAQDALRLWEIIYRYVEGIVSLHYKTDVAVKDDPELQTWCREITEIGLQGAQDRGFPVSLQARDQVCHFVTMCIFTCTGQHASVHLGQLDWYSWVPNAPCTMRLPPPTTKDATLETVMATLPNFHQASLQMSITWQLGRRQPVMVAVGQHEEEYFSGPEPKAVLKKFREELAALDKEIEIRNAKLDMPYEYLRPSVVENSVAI
Method: (§1) Labelox B efficiently labels endogenous LOXs. Lipoxygenase labeling by Labelox B was investigated using cell‐based assays. As a first step, labeling efficiency was estimated in intact RAW 264.7 macrophage cells that were treated with Labelox B in concentrations ranging between 1 μM and 100 μM with incubation times between 0.5 h and 6 h. […] As a next step, a sandwich ELISA assay was established in order to find proof that probe Labelox B is indeed labeling proteins with lipoxygenase enzyme activity. Towards this aim, A549 cell lysates were treated with sub‐micromolar to micromolar concentrations of Labelox B. Subsequently, the endogenous LOXs were captured on an anti‐LOX antibody precoated 96‐well plate followed by detection of Labelox B mediated biotinylation using HRP‐conjugated streptavidin. […] Furthermore, probe Labelox B enabled visualization of localized LOX activity in living cells (Figure 2 c). […] The fluorescence intensity increased with increasing doses of Labelox B and labeling was observed throughout the cells in the cytoplasm and the nucleus of A549.
(§2) Figure 2 Labelox B labels endogenous LOXs in a dose‐ and time‐dependent manner. a, b) Western blot analysis of Labelox B labeled LOXs in intact RAW 264.7 for indicated doses and time points. […] The pictures were captured by a Leica DM4000b fluorescence microscope.

5-LOX = molecular target: T2, 5-LOX (Homo sapiens, UniProt P09917); experiment: Sandwich ELISA of Labelox B biotinylation in A549 cell lysate, 5-LOX capture; type: biochemical; details: HRP-streptavidin detection, read-out: EC50 of labeling
T2 construct: the endogenous LOXs were captured on an anti‐LOX antibody precoated 96‐well plate; endogenous in cells; host or cells: A549 cell lysate
T2 sequence (P09917 1-674): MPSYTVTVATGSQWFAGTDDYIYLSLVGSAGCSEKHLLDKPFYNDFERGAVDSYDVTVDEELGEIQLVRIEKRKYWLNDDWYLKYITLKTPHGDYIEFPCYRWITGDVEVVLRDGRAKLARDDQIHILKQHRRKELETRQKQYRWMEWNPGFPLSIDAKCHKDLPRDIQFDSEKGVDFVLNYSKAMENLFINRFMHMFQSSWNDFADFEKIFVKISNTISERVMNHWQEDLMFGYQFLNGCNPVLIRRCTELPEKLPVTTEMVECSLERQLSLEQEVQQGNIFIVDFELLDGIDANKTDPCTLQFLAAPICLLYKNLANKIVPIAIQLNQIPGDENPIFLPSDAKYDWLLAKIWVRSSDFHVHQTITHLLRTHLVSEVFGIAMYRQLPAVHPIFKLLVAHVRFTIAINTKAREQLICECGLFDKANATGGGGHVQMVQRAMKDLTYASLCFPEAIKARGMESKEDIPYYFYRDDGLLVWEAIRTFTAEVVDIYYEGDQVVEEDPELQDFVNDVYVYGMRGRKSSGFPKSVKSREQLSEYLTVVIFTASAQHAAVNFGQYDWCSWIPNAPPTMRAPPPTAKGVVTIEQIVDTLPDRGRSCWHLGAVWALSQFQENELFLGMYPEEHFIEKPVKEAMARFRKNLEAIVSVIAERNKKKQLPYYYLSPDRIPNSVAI
Method: as §1, §2

LOXs = tested on: LOXs; set-up: method as in PMID 17942241, PMID 16500106; details: redox inhibitor for LOXs; read-out: IC50 in vitro; cited from earlier work

| EC50 (15-LOX-1) [µM] | EC50 (5-LOX) [µM] | SMILES | IC50 (LOXs) [µM] |
| --- | --- | --- | --- |
| ~3.5 | ~3.5 | CCCCCC#CCC#CCOC(=O)CCCC[C@@H]1SC[C@@H]2NC(=O)N[C@@H]21 [Labelox B (3)] | – |
| – | – | O=c1cc(-c2ccccc2)oc2cc(O)c(O)c(O)c12 [Baicalein] | < 4 |
